In patent US20110294138A1, “METHODS FOR SIMULTANEOUSLY MEASURING THE IN VIVO METABOLISM OF TWO OR MORE ISOFORMS OF A BIOMOLECULE” (THE WASHINGTON UNIVERSITY, priority 2008, published 2011):

Test system: immortalized knock-in murine astrocytes expressing human ApoE4
Assay: Production (stable isotope labeling kinetics, SILT) of human ApoE4 in immortalized knock-in murine astrocytes
Type: cell-based
Settings: 50% 13C6-leucine in media, media collected over 48 hours, n=3; calculated from initial slope and plateau TTR
Method: FIG. 5 presents the production of human ApoE4 in immortalized knock-in murine astrocytes. ApoE4 expressing astrocytes were grown to confluency. ^13C6-Leucine was added to the media at time t=0 bringing the total percent ^13C6-leucine to 50%. Media was collected over 48 hours. ApoE was captured using liposorb, reduced and alkylated, and digested with trypsin. ApoE4 specific peptides were analyzed by nano-LC MS/MS. The SILT method was used to determine the incorporation of ^13C6-leucine into ApoE (n=3, error bars SEM). The fractional synthetic rate (FSR) of ApoE4 was calculated using initial slope and plateau tracer to tracee ratio (TTR) of 8.5% per hour. […]
ApoE was isolated either by overnight incubation with anti-ApoE antibody (WUE4) coupled to CNBr-activated Sepharose beads, or incubation for 30 min (4° C.) with PHM-Liposorb™ (Calbiochem, San Diego, Calif.). […] After desalting using Nu-tip carbon tips (Glygen Corp., Columbia, Md.), the supernatant containing ApoE peptides was analyzed by nano-LC tandem MS (Thermo-Finnigan LTQ equipped with a New Objective nanoflow ESI source) as previously described (Bateman et al., 2006, Nature Medicine, 12:856-861). The samples were quantitated using the stable-isotope tandem labeled (SILT) mass spectroscopy method as described by Bateman et al. 2007 J Am Soc Mass Spectrum 18(6):[…]. […]

Substance: ApoE4: Human apolipoprotein E isoform ApoE4 (arg112, arg158), endogenous protein whose metabolism is measured
- fractional synthetic rate (FSR) of ApoE4: 8.5 % per hour
